What follows are compounds tested against T1, hNav1.7 channels (Homo sapiens, UniProt Q15858) (assay: hNav1.7 channel in vitro patch-clamp assay). Conditions: stable HEK293 cell line expressing hNav1.7; whole cell patch-clamp (QPatch HTX and/or conventional), room temperature; voltage protocol not given.
T1 construct: host or cells: HEK293
T1 sequence (Q15858 whole entry): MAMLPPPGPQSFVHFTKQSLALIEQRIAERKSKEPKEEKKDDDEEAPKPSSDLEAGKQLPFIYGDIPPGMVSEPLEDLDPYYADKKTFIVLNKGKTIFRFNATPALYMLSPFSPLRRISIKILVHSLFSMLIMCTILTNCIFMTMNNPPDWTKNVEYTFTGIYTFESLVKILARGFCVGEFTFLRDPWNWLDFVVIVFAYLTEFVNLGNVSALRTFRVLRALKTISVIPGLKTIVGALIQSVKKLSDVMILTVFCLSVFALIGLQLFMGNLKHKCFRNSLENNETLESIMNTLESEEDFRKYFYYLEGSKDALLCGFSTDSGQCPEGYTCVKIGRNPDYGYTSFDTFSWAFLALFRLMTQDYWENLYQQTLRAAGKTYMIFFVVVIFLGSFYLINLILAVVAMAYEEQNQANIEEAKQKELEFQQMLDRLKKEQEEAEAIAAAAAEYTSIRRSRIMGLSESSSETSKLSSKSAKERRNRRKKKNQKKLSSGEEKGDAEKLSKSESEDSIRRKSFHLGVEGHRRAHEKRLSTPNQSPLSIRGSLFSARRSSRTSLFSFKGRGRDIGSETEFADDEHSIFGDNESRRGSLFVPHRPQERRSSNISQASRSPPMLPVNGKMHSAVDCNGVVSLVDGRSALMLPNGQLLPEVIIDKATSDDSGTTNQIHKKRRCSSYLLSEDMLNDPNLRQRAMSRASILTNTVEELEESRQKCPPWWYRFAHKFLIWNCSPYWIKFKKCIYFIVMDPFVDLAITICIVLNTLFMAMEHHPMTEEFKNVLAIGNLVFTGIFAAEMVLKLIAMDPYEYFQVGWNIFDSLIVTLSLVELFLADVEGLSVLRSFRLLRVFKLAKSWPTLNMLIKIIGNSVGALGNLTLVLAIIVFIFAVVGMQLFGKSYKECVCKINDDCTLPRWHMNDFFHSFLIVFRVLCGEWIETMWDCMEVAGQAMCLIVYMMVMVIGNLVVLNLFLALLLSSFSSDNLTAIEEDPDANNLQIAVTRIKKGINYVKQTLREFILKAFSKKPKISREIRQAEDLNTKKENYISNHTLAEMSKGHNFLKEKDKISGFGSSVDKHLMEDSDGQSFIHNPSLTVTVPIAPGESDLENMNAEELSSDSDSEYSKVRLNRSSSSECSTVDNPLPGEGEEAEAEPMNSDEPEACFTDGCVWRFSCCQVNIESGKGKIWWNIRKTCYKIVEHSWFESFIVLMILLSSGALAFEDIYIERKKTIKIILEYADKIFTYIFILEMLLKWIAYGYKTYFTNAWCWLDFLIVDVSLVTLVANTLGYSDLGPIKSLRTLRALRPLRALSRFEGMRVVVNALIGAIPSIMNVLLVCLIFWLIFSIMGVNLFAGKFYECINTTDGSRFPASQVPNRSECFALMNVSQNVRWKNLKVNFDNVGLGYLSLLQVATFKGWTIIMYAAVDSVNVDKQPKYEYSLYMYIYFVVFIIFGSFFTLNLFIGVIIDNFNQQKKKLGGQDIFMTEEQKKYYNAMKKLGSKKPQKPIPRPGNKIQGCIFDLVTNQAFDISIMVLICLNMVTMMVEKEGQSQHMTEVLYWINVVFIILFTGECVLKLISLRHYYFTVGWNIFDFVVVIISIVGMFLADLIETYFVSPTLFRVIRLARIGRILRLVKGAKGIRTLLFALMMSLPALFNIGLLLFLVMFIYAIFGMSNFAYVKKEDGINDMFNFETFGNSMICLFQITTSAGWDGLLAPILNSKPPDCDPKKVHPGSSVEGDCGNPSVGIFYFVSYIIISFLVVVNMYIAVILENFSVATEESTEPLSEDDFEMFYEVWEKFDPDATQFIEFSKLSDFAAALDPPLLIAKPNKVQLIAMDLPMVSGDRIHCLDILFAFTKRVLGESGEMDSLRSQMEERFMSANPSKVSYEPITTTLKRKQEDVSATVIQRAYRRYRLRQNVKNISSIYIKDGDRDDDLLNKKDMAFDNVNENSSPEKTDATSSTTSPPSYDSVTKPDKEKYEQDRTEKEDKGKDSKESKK
Format: cell-based
Procedure: hNav1.7 Channel In Vitro Patch-Clamp Assay
Cells: Sable HEK293 (human embryonic kidney) cell line expressing hNav1.7 channels was used in the assay. The cell line was obtained from Millipore (Millipore Corporation, MA).
Patch-clamp recordings: The recordings were performed on QPatch HTX (Sophion Bioscience, Denmark) and/or conventional patch-clamp (Axon Multiclamp 700B systems, Molecular Devices, CA) platforms at room temperature, using whole cell patch-clamp techniques. The composition of extracellular solution was (in mM): HEPES 5, NaCl 40, KCl 3, CaCl2 1, MgCl2 1, Choline Chloride 100. Adjust pH to 7.2 with 1N NaOH, osmolarity to 300-310 mOsm with sucrose. The composition of intracellular solution was (in mM): HEPES 10, NaCl 10, Na2ATP 1, MgCl2 2, KF 135, EGTA 10. Adjust pH to 7.2 with 1N NaOH, osmolarity to 290-300 mOsm with sucrose.
For conventional patch-clamp, 35 mm culture dishes containing hNav1.7 cells were placed on the stage of an inverted microscope and continuously perfused with extracellular solution from a perfusion system (Biologic Rapid solution changer, RSC-160, ˜1 ml/min). […] The recordings were controlled by pCLAMP10 software. Test compounds were dissolved in 100% DMSO to make stock solutions for each test concentration, and then diluted into extracellular solution to achieve final concentration for testing. Final DMSO concentration was less than 0.3%. Two voltage protocols were used in hNav1.7 assay: for non-inactivated protocol, the sodium currents were elicited by a 2 ms pulse to −10 mV from a holding potential of −110 mV. For inactivated protocol, the holding potential was set at V1/2. The voltage was firstly stepped to −110 mV for 50 ms, then to −10 mV for 2 ms and then stepped back to holding potential. In both protocols the voltage command was given in every 10 s. Compound effect (% inhibition) was determined by difference in current amplitude before and after the application of test compounds. IC50 values were determined from concentration-response curves that were obtained with Hill fitting.
For QPatch HTX assay, hNav1.7 cells grown to 50%-80% confluence were rinsed with DPBS and dissociated with Tryple (Invitrogen, 12605-010). The dissociated cells were then mixed with extracellular solution. After centrifuge, the cells were resuspended in extracellular solution and used in the QPatch experiment. The whole-cell protocols, voltage protocols and application protocols were established with QPatch Assay Software 3.4 (Sophion Bioscience, Denmark). Only the inactivated protocol was used in the QPatch assay.
With `Cc1cnc(-c2cnc(OCC(C)C)c(Cl)c2)c2cc3onc(NS(=O)(=O)C4CC4)c3cc12` [Example 60, N-(8-(5-chloro-6-isobutoxypyridin-3-yl)-5-methylisoxazolo[4,5-g]isoquinolin-3-yl)cyclopropanesulfonamide] the IC50 was 1870 nM. `CC(C)COc1ncc(N2C(=O)C3(CC3)c3cc4c(NS(C)(=O)=O)noc4cc32)cc1Cl` [Example 1, N-(7′-(5-chloro-6-isobutoxypyridin-3-yl)-6′-oxo-6′,7′-dihydrospiro[cyclopropane-1,5′-isoxazolo[4,5-f]indol]-3′-yl)methanesulfonamide] was tested, and the IC50 was 150 nM. In the case of `CC(C)COc1ncc(-c2cccc3cc4c(NS(=O)(=O)C5CC5)noc4cc23)cc1Cl` [Example 58, N-(8-(5-chloro-6-isobutoxypyridin-3-yl)naphtho[2,3-d]isoxazol-3-yl)cyclopropanesulfonamide], the IC50 is reported as 10 nM. `CC(C)COc1ncc(N2C(=O)C(C)(C)c3cc4c(NS(=O)(=O)C5CC5)noc4cc32)cc1Cl` [Example 36, N-(7-(5-chloro-6-isobutoxypyridin-3-yl)-5,5-dimethyl-6-oxo-6,7-dihydro-5H-isoxazolo[4,5-f]indol-3-yl)cyclopropanesulfonamide] was tested, and the IC50 was 70 nM. With `CC(C)COc1ncc(-c2nccc3cc4c(NS(C)(=O)=O)noc4cc23)cc1Cl` [Example 51, N-(8-(5-chloro-6-isobutoxypyridin-3-yl)isoxazolo[4,5-g]isoquinolin-3-yl)methanesulfonamide] the IC50 was 300 nM. `CC(C)COc1ncc(N2C(=O)C3(CCC3)c3cc4c(NS(=O)(=O)C5CC5)noc4cc32)cc1Cl` [Example 37, N-(7′-(5-chloro-6-isobutoxypyridin-3-yl)-6′-oxo-6′,7′-dihydrospiro[cyclobutane-1,5′-isoxazolo[4,5-f]indol]-3′-yl)cyclopropanesulfonamide] showed an IC50 of 40 nM. Work on `O=S(=O)(Nc1noc2cc3c(-c4ccc(Cl)c(Cl)c4)nccc3cc12)C1CC1` [Example 52] yielded an IC50 of 800 nM. Work on `CC(C)COc1ncc(N2C(=O)C3(CCCCC3)c3cc4c(NS(=O)(=O)C5CC5)noc4cc32)cc1Cl` [Example 39, N-(7′-(5-chloro-6-isobutoxypyridin-3-yl)-6′-oxo-6′,7′-dihydrospiro[cyclohexane-1,5′-isoxazolo[4,5-f]indol]-3′-yl)cyclopropanesulfonamide] yielded an IC50 of 700 nM. For `O=C1N(c2cnc(OCC3CCC3)c(Cl)c2)c2cc3onc(NS(=O)(=O)C4CC4)c3cc2C12CC2` [Example 25, N-(7′-(5-chloro-6-(cyclobutylmethoxy)pyridin-3-yl)-6′-oxo-6′,7′-dihydrospiro[cyclopropane-1,5′-isoxazolo[4,5-f]indol]-3′-yl)cyclopropanesulfonamide], the IC50 was 80 nM. Compound `O=C1N(c2cnc(OCC(F)(F)F)c(Cl)c2)c2cc3onc(NS(=O)(=O)C4CC4)c3cc2C12CC2` [Example 20, N-(7′-(5-chloro-6-(2,2,2-trifluoroethoxyl)pyridin-3-yl)-6′-oxo-6′,7′-dihydrospiro[cyclopropane-1,5′-isoxazolo[4,5-f]indol]-3′-yl)cyclopropanesulfonamide] has an IC50 of 500 nM. Compound `CC(C)COc1ncc(N2C(=O)C3(CC3)c3cc4c(NS(=O)(=O)N(C)C)noc4cc32)cc1Cl` [Example 9, N-(7′-(5-chloro-6-isobutoxypyridin-3-yl)-6′-oxo-6′,7′-dihydrospiro[cyclopropane-1,5′-isoxazolo[4,5-f]indol]-3′-yl)dimethylamino-1-sulfonamide] has an IC50 of 1230 nM. With `CC1(COc2ncc(N3C(=O)C4(CC4)c4cc5c(NS(C)(=O)=O)noc5cc43)cc2Cl)CC1` [Example 15, N-(7′-(5-chloro-6-((1-methylcyclopropyl)methoxy)pyridin-3-yl)-6′-oxo-6′,7′-dihydrospiro[cyclopropane-1,5′-isoxazolo[4,5-f]indol]-3′-yl) methanesulfonamide] the IC50 was 70 nM. In the case of `CC(C)COc1ncc(N2C(=O)C3(CC3)Oc3cc4c(NS(=O)(=O)C5CC5)noc4cc32)cc1Cl` [Example 62, N-(8′-(5-chloro-6-isobutoxypyridin-3-yl)-7′-oxo-7′,8′-dihydrospiro[cyclopropane-1,6′-isoxazolo[5′,4′:4,5]benzo[1,2-b][1,4]oxazin]-3′-yl)cyclopropanesulfonamide], the IC50 is reported as 100 nM. In the case of `CS(=O)(=O)Nc1noc2cc3c(cc12)C1(CC1)C(=O)N3c1cnc(OCC2CCC(C(F)(F)F)CC2)c(Cl)c1` (centres unmarked) [Example 14, N-(7′-(5-chloro-6-((4-(trifluoromethyl)cyclohexyl)methoxy)pyridin-3-yl)-6′-oxo-6′,7′-dihydrospiro[cyclopropane-1,5′-isoxazolo[4,5-f]indol]-3′-yl)methanesulfonamide], the IC50 is reported as 200 nM.
